# Assay results: US20170202780A1, “PHARMACEUTICAL COMPOSITION” (SENTAN Pharma Inc., priority 2014, published 2017)
# Columns and labels:
# [1] = Maximum soluble amount of bulk drug for intravenous dosing; format: physicochemical; conditions: expressed as dose
# [2] = system: model mouse of myocardial ischemia-reperfusion; experiment: Infarct size (area of infarct region/area of AAR) after myocardial ischemia-reperfusion; format: in vivo; conditions: iv
# Protocol: (§1) Mice (C57BL/6J, 8 to 10 weeks of age, male, 25 to 30 g, n=3) were intraperitoneally administered with pentobarbital sodium (60 mg/kg) or subjected to inhalation anesthesia with isoflurane. During the procedure, respiration was controlled by a mechanical ventilator (tidal volume: 0.5 ml, respiratory rate: 140 breaths/min); the mouse was kept warm using a heating pad so that the rectal temperature was maintained at 36.8° C. to 37.2° C. An incision was made horizontally at the level of the third to fourth intercostal space; and the pericardium was opened. […] ST change in electrocardiogram and a change in the color of cardiac muscles were observed and ischemia in the cardiac muscles was checked. […]
# Twenty-four hours after the reperfusion, the mouse was anesthetized again and endotracheal intubation was conducted, followed by thoracotomy. […] In evaluation of the specimen, SMZ1500 (manufactured by Nikon Corporation) was employed as an optical and fluorescence microscope. […]
# Each of the sections was stained in the same manner as described above; and the areas of infarct (region shown in white) and AAR (region shown in red) were each measured and the area of the infarct region/the area of AAR was calculated. […]
# Each of the sections was stained in the same manner as described above; and the areas of infarct and AAR were each measured and the area of the infarct region/the area of AAR was calculated. […]
# [3] = system: model mouse of myocardial ischemia-reperfusion; experiment: Selective drug delivery to ischemia reperfusion sites, fluorescence of heart specimens; format: in vivo; conditions: stereo microscope, heart specimen 24 h after reperfusion; iv at reperfusion, FITC 40 mg/kg or FITC-NP 800 mg/kg
# Protocol: as §1, with “checked. The silicone tube was removed 30 minutes after the ligature. Reperfusion was carried out and at the same time 0.1 to 0.2 ml of solution of test substance was intravenously injected. The chest was closed using 5-0 silk suture; and then extubation was performed after spontaneous breathing was confirmed. The intravenously-injected test substance is FITC (40 mg/kg) or FITC-NP (800 mg/kg).” for “checked.”
# Twenty-four hours after the reperfusion, the mouse was anesthetized again and endotracheal intubation was conducted, followed by thoracotomy. […] In evaluation of the specimen, SMZ1500 (manufactured by Nikon Corporation) was employed as an optical and fluorescence microscope.
Compound,maximum soluble amount [1],reduction of the infarct size ([2]; pitavastatin dosed at 10 mg/kg),fluorescence of FITC in the infarction site [3],reduction of the infarct size ([2]; irbesartan dosed at 3.0 mg/kg)
O=C(O)C[C@H](O)C[C@H](O)/C=C/c1c(C2CC2)nc2ccccc2c1-c1ccc(F)cc1 [pitavastatin],10 mg/kg,drastic reduction of the infarct size was not seen,–,–
CCc1ccc(CCOc2ccc(CC3SC(=O)NC3=O)cc2)nc1 (stereo not shown) [pioglitazone],3.0 mg/kg,–,–,–
"CSc1ccc(C(=O)N[C@H]2CCCC[C@H]2NC(=O)CNC(=O)c2cc(C(F)(F)F)ccc2NC(=O)NC(C)C)cc1 (relative stereo) [BMS CCR2 22, 2-[(Isopropylaminocarbonyl)amino]-N-[2-[[cis-2-[[4-(methylthio)benzoyl]amino]cyclohexyl]amino]-2-oxoethyl]-5-(trifluoromethyl)benzamide]",1.0 mg/kg,–,–,–
O=C1OC2(c3ccc(O)cc3Oc3cc(O)ccc32)c2ccc(N=C=S)cc21 [FITC],–,–,not observed,–
CCCCC1=NC2(CCCC2)C(=O)N1Cc1ccc(-c2ccccc2-c2nnn[nH]2)cc1 [irbesartan],3.0 mg/kg,–,–,drastic reduction of the infarct size was not seen
